Measurements as given in paper PMC8586708, “SC75741, A Novel c-Abl Inhibitor, Promotes the Clearance of TDP25 Aggregates via ATG5-Dependent Autophagy Pathway” (Frontiers in Pharmacology, 2021).

Biological target: T1, c-Abl (Homo sapiens, UniProt P00519)
T1 construct: gene ABL1
Experiment: in vitro kinase assay, dose-response
Assay type: biochemical

T1 sequence (P00519 whole entry): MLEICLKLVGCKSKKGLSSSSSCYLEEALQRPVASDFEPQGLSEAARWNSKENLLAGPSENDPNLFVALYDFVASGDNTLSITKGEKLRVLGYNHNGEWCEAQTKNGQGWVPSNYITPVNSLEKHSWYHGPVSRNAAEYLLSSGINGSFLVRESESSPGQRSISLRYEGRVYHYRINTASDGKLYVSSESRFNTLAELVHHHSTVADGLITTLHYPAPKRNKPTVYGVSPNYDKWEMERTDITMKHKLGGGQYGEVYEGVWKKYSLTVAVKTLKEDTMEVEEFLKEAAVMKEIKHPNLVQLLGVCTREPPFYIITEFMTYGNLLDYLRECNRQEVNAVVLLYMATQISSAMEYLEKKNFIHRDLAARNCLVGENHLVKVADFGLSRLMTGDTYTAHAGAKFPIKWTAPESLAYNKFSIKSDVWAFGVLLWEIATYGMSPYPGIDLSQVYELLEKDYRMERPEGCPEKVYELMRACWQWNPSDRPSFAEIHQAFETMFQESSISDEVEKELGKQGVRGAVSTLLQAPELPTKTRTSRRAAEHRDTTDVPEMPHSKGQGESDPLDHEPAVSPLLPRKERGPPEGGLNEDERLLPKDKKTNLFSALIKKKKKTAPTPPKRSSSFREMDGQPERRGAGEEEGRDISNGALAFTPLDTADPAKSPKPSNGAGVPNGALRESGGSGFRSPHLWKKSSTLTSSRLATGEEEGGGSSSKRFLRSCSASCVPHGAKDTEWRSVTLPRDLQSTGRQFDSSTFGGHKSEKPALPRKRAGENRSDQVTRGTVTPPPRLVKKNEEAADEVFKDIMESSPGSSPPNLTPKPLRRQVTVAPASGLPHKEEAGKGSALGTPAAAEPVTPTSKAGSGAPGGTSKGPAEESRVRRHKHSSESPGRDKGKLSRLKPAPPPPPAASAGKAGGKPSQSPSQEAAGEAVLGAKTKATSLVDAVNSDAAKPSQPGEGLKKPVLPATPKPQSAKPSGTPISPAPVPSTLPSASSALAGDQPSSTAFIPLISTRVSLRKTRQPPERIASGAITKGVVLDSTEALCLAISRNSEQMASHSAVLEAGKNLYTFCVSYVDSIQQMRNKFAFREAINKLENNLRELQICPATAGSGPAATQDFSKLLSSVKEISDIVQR

IC50: 0.263 µM
SMILES: O=C(c1ccccc1)c1ccc2nc(NC(=O)c3csc(C4CCN(c5ncnc6ccsc56)CC4)n3)[nH]c2c1 [SC75741]
